Converted amounts (≈) assume the structure as drawn.
Key:
[1] = test system: Staphylococcus aureus E48; assay: Minimum inhibitory concentration (broth microdilution, Mueller-Hinton broth); format: cell-based; settings: 5 × 10^5 CFU/mL, 37°C, 16-20 h, three replicates, read-out: MIC against S. aureus E48
Protocol: Staphylococcus aureus E48, a clinical mastitis isolate, had been used to induce mouse mastitis model ([Wang et al., 2017]). […] It was used as a positive control in this study and was purchased from Sigma–Aldrich. The AMPs were prepared according to a previously described protocol ([Zhang et al., 2015]). The minimum inhibitory concentrations (MICs) were used to evaluate the antibacterial activities of antimicrobial agents ([Wiegand et al., 2008]). Briefly, S. aureus were grown to the log-phase at 37°C in the Mueller–Hinton broth, and diluted to 5 × 10^5 CFU/mL with the fresh medium. A total of 180 μL of cell suspension and 20 μL of serially twofold diluted peptide were added to each well, and the plates were incubated at 37°C for 16–20 h. The final concentration of antimicrobial agents was prepared with gradients of 64, 32, 16, 8, 4, 2, 1, 0.5, 0.25, 0.125, and 0.0625 μg/mL. Three replicates were examined for each concentration. The MICs refer to the lowest concentration where no growth was visible after 16–20 h of incubation.

[2] = test system: S. aureus E48 in mammary glands; assay: Mouse model of S. aureus-induced mastitis; format: in vivo, BALB/c mice
Protocol: The animal protocols used in this work were approved by Institutional Animal Care and Use Committee of Northwest A&F University. The 6- to 8-week-old specific-pathogen-free BALB/c mice were purchased from the Experimental Animal Center of the Medical College of Xi’an Jiao Tong University. […] The lactating mice were challenged with S. aureus E48 as described earlier ([Schmelcher et al., 2015]). The pentobarbital sodium (1.4 mg/20 g bodyweight) was used for anesthesia of the lactating mice by intraperitoneal injection. The distal end of the teat L4 (on the left) and R4 (on the right) was removed (snipped) by a small cut. These L4 and R4 glands constitute the fourth pair found from head to tail. For all groups except for the snipped only group, glands were injected with approximately 10^4 CFU S. aureus in 50 μL PBS. At 45 min after S. aureus inoculation, the challenged glands were injected with 100 μg AMPs in 20 μL or 20 μL of PBS, depending on the treatment. The mice were euthanized 24 h after the S. aureus inoculation, and mammary glands were aseptically collected and weighed. Five mice (10 mammary glands) were used for each group. Seven mammary glands from each treatment were sampled and homogenized in PBS (100 mg/200 μL). Serial dilution plating on Baird-Parker agar plates was done to determine intramammary S. aureus. A part of the homogenate was centrifuged, and the supernatant was used for tumor necrosis factor alpha (TNF-α) and interleukin 6 (IL-6) assays, using the mouse TNF-α and IL-6 ELISA kits (Shanghai Bangyi Biotechnology). The tissue from three mammary glands from each treatment was fixed with 10% buffered formalin for histopathological analyses (HE staining).

[3] = 100 μg intramammary, 24 h post-infection, ELISA, P < 0.05

## CN(C)[C@@H]1C(O)=C(C(N)=O)C(=O)[C@@]2(O)C(O)=C3C(=O)c4c(O)cccc4[C@@](C)(O)[C@H]3C[C@@H]12 [tetracycline, Tetracycline]
[1]
  MIC: 1 µg/mL (≈ 2.25 µM)
[2]; 100 μg intramammary 45 min after ~10^4 CFU inoculation, 24 h after inoculation
  Reduction of S. aureus numbers in mammary glands compared to PBS control: 1.48 log10 units
[2]; 100 μg intramammary, 24 h
  S. aureus-induced inflammatory cell infiltration in mammary tissue (HE staining): significantly reduced
[2]; [3]
  Intramammary IL-6 concentration in comparison with buffer control: significantly reduced
  Intramammary TNF-α concentration in comparison with buffer control: significantly reduced
